Measured values taken from patent US5726153A, “Synthetic peptides for arterial imaging” (New England Deaconess Hospital Corporation, priority 1995, dated 1998).
Entries after “also recorded” stand apart in the source; their conditions may differ. Ends that are not written are not given here.

Columns and labels:
[1] = Plasma decay of 125I-labelled synthetic peptide after intravenous injection; type: in vivo, rabbit; conditions: for plasma level leveled off to / plasma level after one hour: 125I-labelled peptide, intravenous, rabbit; for additional fall of plasma level over the next three hours: from one to four hours after injection
Description: (§1) Each labelled synthetic peptide preparation (containing, for example, 150 to 400 or more μCi of ^125 I-labelled peptide) in column elution buffer was injected into the marginal ear vein of the ballooned and healing New Zealand white rabbits or WHHL rabbits. Serial blood samples were obtained from the opposite ear during the ensuing 0-24 hours and were analyzed for radioactivity. The labelled peptide concentrations in the blood samples that were withdrawn over the first 10 minutes after injection were extrapolated to zero time to determine the time zero radioactivity in the calculation of average plasma radioactivity. […] Peptides SP15a, SP17, SP19a, SP21a, SP28, SP34a, and SP30 were cleared rapidly from the plasma with half-lives of about one minute or less; after one hour, the plasma levels were less than 10% of the injected dose and fell by an additional 1% over the next three hours. Peptides SP15a, SP17, SP21a, SP28, SP34a, and SP30 leveled off to a plasma level of 3-6%; peptide SP19a cleared more quickly and leveled off to a concentration of 0.3% (at four hours).

[2] = system: balloon de-endothelialized healing abdominal aorta; experiment: Focal accumulation at vascular injury, onlay autoradiography of excised aorta, balloon de-endothelialized rabbit; type: in vivo, New Zealand white rabbits
Description: The peptides described herein were assayed for their ability to target sites of vascular injury as follows. Male New Zealand white rabbits (2 to 3 kg each) were obtained from ARI Breeding Labs, West Bridgewater, Mass. To induce vascular injury, their abdominal aortas were denuded of endothelium by a modification of the Baumgartner technique (Fischman et al., Arteriosclerosis 7:361, 1987). Briefly, after each animal was anesthetized with ketamine and ether or, alternatively, with xylazine (20 mg/ml) and Ketalar (50 mg/ml), the left femoral artery was isolated; a 4F Fogarty embolectomy catheter (Model 12-040-4F, Edwards Laboratories Incorporated, Santa Anna, Calif.) was introduced through an arterotomy in the femoral artery and was advanced under fluoroscopic visualization to the level of the diaphragm. The catheter was inflated to a pressure of about 3 psi above the balloon inflation pressure with radiographic contrast medium (Conray, Mallinkrodt, St. Louis, Mo.). Three passes were made through the abdominal aorta with the inflated catheter to remove the aortic endothelium before removal of the catheter, ligation of the femoral artery, and closure of the wound. The animals were allowed to heal for a period of 4 to 5 weeks before injection of the labelled synthetic peptides.
as §1
One to twenty-four hours after injection of the labelled synthetic peptide preparations, each animal was injected intravenously with 4 ml of a 0.5% solution of Evans blue dye (Allied Chemical Company, National Aniline Division, NY, N.Y.) which stains areas of de-endothelialized aorta blue. After 30 minutes, the animal was sacrificed by a lethal injection of pentobarbital. After sacrifice, the aorta was removed completely, washed in saline, and fixed in 10% trichloroacetic acid.
The washed and fixed aortas from the animals that had been injected with radiolabelled synthetic peptide were opened along the ventral surface. These segments were then pinned out, fixed for 2 hours in 10% trichloroacetic acid, and photographed. The fixed, opened vessels were then covered with a single layer of plastic (Saran) wrap, placed on high speed x-ray film (Kodak Orthofilm OH-1), and stored for 3 days to 4 weeks in a Kodak "X-Omatic cassette" (24×30 cm) at -70° C. before development in a 90 second X-OMAT.

anti-SP-4 antiserum = experiment: ELISA cross-reactivity: peptide-coated plates treated with anti-SP-4 antiserum; type: binding, rabbit; conditions: FIG. 4
Description: To produce anti-synthetic peptide antisera, purified synthetic peptide was dissolved in PBS, pH 7.4 at a concentration of 1 mg/ml. The peptide solution was mixed with an equal volume of complete Freund's adjuvant and vortexed thoroughly until a thick emulsion was produced. New Zealand White rabbits (Millbrook Farms, Amherst, Mass.) were injected with a total of 0.5 mg synthetic peptide administered subcutaneously in the four dorsal quadrants. The rabbits were given a boost (injected at the same sites) with 0.5 mg peptide emulsified in incomplete Freund's adjuvant 2-3 weeks later. Eight to ten days after the first boost, the animals were given a second, identical boost and were bled of 30 ml 8 to 10 days later.
To test for immunological cross-reactivity microtiter plates (Immulon II Dynatech Labs, Chantilly, Va.) were coated with the purified synthetic peptide or LDL by an overnight incubation at 4° C. with 100 ng peptide per well in 50 mM carbonate, pH 9.6, and blocked for nonspecific binding with an additional overnight incubation with phosphate-buffered saline, pH 7.4 (PBS), 1% bovine serum albumin (BSA). Control wells were coated with BSA alone. After washing twice with PBS, the wells were filled with serial dilutions (1:10 to 1:100,000 made in PBS, 3% BSA) of a rabbit polyclonal antibody generated against the synthetic peptide(s) and incubated for 45 minutes at room temperature. Following thorough washing (3× with PBS, 0.1% BSA), the wells were filled with a 1:2000 dilution of goat anti-rabbit IgG-horseradish peroxidate conjugate (Atlantic Antibodies, Scarborough, Me.). After a final wash, the wells were filled with 3,3'-5,5'- tetramethybenzidine (TMB) microwell peroxidase substrate (Kirkegaard and Perry Labs, Gaithersburg, Md.) and read at 650 nm every two minutes on an ELISA-5 automated plate reader (Physica, New York, N.Y.). Results (see, e.g., FIGS. 4 and 5) are expressed as the initial velocity of substrate conversion (change in OD650 /hr), which is determined by a linear regression of 15 data points per well. Each data point represents the average of three measured data points from the same plate, run at the same time.

[3] = system: atherosclerotic lesions of the aorta; experiment: Focal accumulation at atherosclerotic lesions, onlay autoradiography of excised aorta, WHHL rabbit; type: in vivo, Watanabe Heritable Hyperlipemic (WHHL) rabbits; conditions: FIG. 7
Description: Watanabe Heritable Hyperlipemic (WHHL) rabbits were also used as animal models. They were obtained from the WHHL Rabbit Program of the National Heart Lung and Blood Institute (Bethesda, Md.) at about 3 months of age and weighing about 1.5 kg. The animals were raised until they were 3-4 kg in weight.
as §1, with “hours). […]” for “hours).”

Ac-YAKFRETLEDTRDRMY-NH2 [SP-15a, CH3 CONH-Tyr-Ala-Lys-Phe-Arg-Glu-Thr-Leu-Glu-Asp-Thr-Arg-Asp-Arg-Met-Tyr-CONH2]
plasma level leveled off to [1]: 3-6% | plasma level after one hour [1]: less than 10 % of the injected dose | additional fall of plasma level over the next three hours [1]: 1% | localization of 125I-labelled peptide on onlay autoradiograph of the aorta [2]: accumulated focally at the leading edges of regenerating endothelial tissue

Ac-YRALVDTEFKVKQEAGAK-NH2 [SP-21a, CH3 CONH-Tyr-Arg-Ala-Leu-Val-Asp-Thr-Glu-Phe-Lys-Val-Lys-Gln-Glu-Ala-Gly-Ala-Lys-CONH2]
plasma level leveled off to [1]: 3-6% | plasma level after one hour [1]: less than 10 % of the injected dose | additional fall of plasma level over the next three hours [1]: 1% | localization of 125I-labelled peptide on onlay autoradiograph of the aorta [2]: accumulated focally at the leading edges of regenerating endothelial tissue

Ac-YRALVDTLKFVTEQAKGA-NH2 [SP-19a, CH3 CONH-Tyr-Arg-Ala-Leu-Val-Asp-Thr-Leu-Lys-Phe-Val-Thr-Glu-Gln-Ala-Lys-Gly-Ala-CONH2]
plasma level after one hour [1]: less than 10 % of the injected dose | plasma concentration leveled off to ([1]; at four hours): 0.3% | additional fall of plasma level over the next three hours [1]: 1% | localization of 125I-labelled peptide on onlay autoradiograph of the aorta [2]: accumulated focally at the leading edges of regenerating endothelial tissue

Ac-YVLDEFREKLNEELEALKQK-NH2 [SP-34a]
plasma level leveled off to [1]: 3-6% | plasma level after one hour [1]: less than 10 % of the injected dose | additional fall of plasma level over the next three hours [1]: 1% | localization of 125I-labelled peptide on onlay autoradiograph of the aorta [2]: accumulated focally at the leading edges of regenerating endothelial tissue

CH3 CONH-Tyr-Arg-Ala-Leu-Val-Asp-Thr-Leu-Lys-CONH2 (Ac-YRALVDTLK-NH2) [SP-14A, modified counterpart of SP-14]
binding of anti-SP-4 antiserum to the peptide (anti-SP-4 antiserum): bind

CH3 CONH-Tyr-Arg-Ala-Leu-Val-Asp-Thr-Leu-Lys-Phe-Val-Thr-Gln-Ala-Glu-Gly-Ala-Lys-CONH2 (Ac-YRALVDTLKFVTQAEGAK-NH2) [SP-4A, modified counterpart of SP-4]
binding of anti-SP-4 antiserum to the peptide (anti-SP-4 antiserum): bind

CH3 CONH-Tyr-Arg-Ala-Leu-Val-Asp-Tyr-Leu-Lys-Phe-Val-Thr-Gln-Leu-CONH2 (Ac-YRALVDYLKFVTQL-NH2) [SP-12A, modified counterpart of SP-12]
binding of anti-SP-4 antiserum to the peptide (anti-SP-4 antiserum): bind

CH3 CONH-Tyr-Lys-Leu-Ala-Leu-Glu-Ala-Ala-Arg-Leu-Leu-Ala-Asn-Ala-Glu-Gly-Ala-Lys-CONH2 (Ac-YKLALEAARLLANAEGAK-NH2) [SP-8A, modified counterpart of SP-8]
binding of anti-SP-4 antiserum to the peptide (anti-SP-4 antiserum): bind

CH3 CONH-Tyr-Lys-Leu-Ala-Leu-Glu-Ala-Ala-Arg-Leu-Leu-Ala-Asp-Ala-Glu-Gly-Ala-Lys-CONH2 (Ac-YKLALEAARLLADAEGAK-NH2) [SP-6A, modified counterpart of SP-6]
binding of anti-SP-4 antiserum to the peptide (anti-SP-4 antiserum): bind

H2 N-Tyr-Lys-Leu-Ala-Leu-Glu-Ala-Ala-Arg-Leu-Leu-Ala-Asn-Ala-Glu-Gly-Ala-Lys- CONH2 (H-YKLALEAARLLANAEGAK-NH2) [SP-8, conservatively substituted SP-4]
binding of anti-SP-4 antiserum to the peptide (anti-SP-4 antiserum): bind

H2 N-Tyr-Lys-Leu-Ala-Leu-Glu-Ala-Ala-Arg-Leu-Leu-Ala-Asp-Ala-Glu-Gly-Ala-Lys- CONH2 (H-YKLALEAARLLADAEGAK-NH2) [SP-6, conservatively substituted SP-4]
binding of anti-SP-4 antiserum to the peptide (anti-SP-4 antiserum): bind

NH2 -Tyr-Arg-Ala-Leu-Val-Asp-Thr-Leu-Lys-Phe-Val-Thr-Gln-Ala-Glu-Gly-Ala-Lys-CONH2 (H-YRALVDTLKFVTQAEGAK-NH2) [SP-4]
binding of anti-SP-4 antiserum to the peptide (anti-SP-4 antiserum): bind | localization of 125I-labelled peptide on onlay autoradiograph of the aorta [2]: clear-cut localization of the synthetic peptide on the image at the healing (re-endothelizing) edge of the aortic lesions; also recorded: labelled healing lesions | localization of 125I-labelled peptide on onlay autoradiograph of the aorta [3]: clearly correspond to the radioactively-labelled lesions; also recorded: localizes at atherosclerotic lesions

YAALDLNAVANKIADFEL-NH2 [SP-17, H2 N-Tyr-Ala-Ala-Leu-Asp-Leu-Asn-Ala-Val-Ala-Asn-Lys-Ile-Ala-Asp-Phe-Glu-Leu- CONH2]
plasma level leveled off to [1]: 3-6% | plasma level after one hour [1]: less than 10 % of the injected dose | additional fall of plasma level over the next three hours [1]: 1% | localization of 125I-labelled peptide on onlay autoradiograph of the aorta [2]: accumulated focally at the leading edges of regenerating endothelial tissue

YVGVAPGVGVAPGVGVAPG [SP-28, H2 N-Tyr-Val-Gly-Val-Ala-Pro-Gly-Val-Gly-Val-Ala-Pro-Gly-Val-Gly-Val-Ala-Pro- Gly-OH]
plasma level leveled off to [1]: 3-6% | plasma level after one hour [1]: less than 10 % of the injected dose | additional fall of plasma level over the next three hours [1]: 1% | localization of 125I-labelled peptide on onlay autoradiograph of the aorta [2]: accumulated focally at the leading edges of regenerating endothelial tissue

YVPGVGVPGVGVPGVGVPGVG-NH2 [SP-30, H2 N-Tyr-Val-Pro-Gly-Val-Gly-Val-Pro-Gly-Val-Gly-Val-Pro-Gly-Val-Gly-Val-pro- Gly-Val-Gly-CONH2]
plasma level leveled off to [1]: 3-6% | plasma level after one hour [1]: less than 10 % of the injected dose | additional fall of plasma level over the next three hours [1]: 1% | localization of 125I-labelled peptide on onlay autoradiograph of the aorta [2]: accumulated focally at the leading edges of regenerating endothelial tissue
